According to US4575560A, “Insecticidal diaminoguanidine hydrazone compounds” (American Cyanamid Company, priority 1985, dated 1986):
Values after ≈ are worked out from the molar mass of the structure shown.

Legend:
[1] = test system: Southern Armyworm; test: Southern armyworm test, third-instar larvae on treated Sieva lima bean leaves; assay type: in vivo, Spodoptera eridania (Cramer); settings: for Mortality Rating Southern Armyworm: third-instar larvae
In short: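 Sieva lima bean plants, primary leaves expanded to 1.91 cm, were dipped with agitation for three seconds in test material dissolved in 65% acetone, with further dilutions in acetone, then air-dried in a hood. A treated leaf was placed in a 9 cm petri dish on moist filter paper with 10 third-instar Spodoptera eridania larvae about 1 cm long. Dishes were covered and kept at 80° F. and 50% r.h. Mortality and feeding were assessed after two days.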

[2] = test system: Tobacco Budworm; test: Tobacco budworm LC50 and FD50 (instar not stated); assay type: in vivo, Heliothis virescens (Fabricus); settings: Heliothis virescens, read-out: LC50 Tobacco Budworm
From the text: (§1) Test formulations and procedures used for evaluation are as follows:
FD50 = The concentration of insecticide required to reduce insect

[3] = test system: Tobacco Budworm 3rd Instar; test: Tobacco budworm secondary test, third-instar larvae on treated cotton cotyledons; assay type: in vivo, Heliothis virescens (Fabricus)
Description: Three cotton plants with just expanded cotyledons are dipped in 1000 ppm solution and placed in the hood to dry. When dry, each cotyledon is cut in half, and 10 are each placed in a 28 g plastic medicine cup containing a 1.25 cm dental wick saturated with water, and one third-instar budworm larva is added. The cup is capped and held for three days at 80° F., 50% relative humidity, after which mortality counts are made.

[4] = test system: Tobacco Budworm 1st Instar; test: Tobacco budworm initial test, treated eggs / newly hatched (1st instar) larvae on treated cotton leaves; assay type: in vivo, Heliothis virescens (Fabricus)
Description: as §1
A. 100 mg of the test material is weighed, placed in a funnel over a 113 g narrow-mouth bottle, rinsed into the bottle with a 35 mL scoop of acetone, followed by a 35 mL scoop of water and another 35 mL scoop of acetone to yield 1000 ppm in 65% acetone. If the material is not soluble, it is broken up with a glass rod and used as a suspension.
B. This stock solution ("A") is used to make 300 ppm solutions or suspensions by pipetting 30 mL of "A" into a bottle containing 70 mL of 50% acetone to yield 300 ppm. Further dilutions in 50% acetone are made as required.
C. Tests requiring 10 ppm acetone solutions: 1 mL of "A" is pipetted into 99 mL of acetone to yield 10 ppm. Additional dilutions are made using 50% acetone as required.
Tobacco Budworm--Heliothis virescens (Fabricus)
A cotton plant with two true leaves expanded is dipped for three seconds with agitation in 300 ppm solution. A 1.27 to 1.91 cm square of cheesecloth with about 50 to 100 budworm eggs 0-24 hours old is also dipped in the test solution and placed on a leaf of the cotton plant, all being placed in the hood to dry. The leaf with the treated budworm eggs is removed from the plant and placed in a 226 g Dixie cup with a wet 5 cm piece of dental wick and covered with a lid. The other leaf is placed in a similar cup with a wick and a piece of cheesecloth infested with 50-100 newly hatched larvae is added before covering the cup with a lid. After three days at 80° F., 50% relative humidity, observations of egg hatch are made, as well as kill of newly hatched larvae, any inhibition of feeding, or interference of any sort with normal development.

| SMILES | Mortality Rating Southern Armyworm ([1]; 100 ppm) | Mortality Rating Southern Armyworm ([1]; 1000 ppm) | LC50 [2] [µg/mL] | Mortality Rating Tobacco Budworm 3rd Instar ([3]; 100 ppm) | Mortality Rating Tobacco Budworm 3rd Instar ([3]; 1000 ppm) | Mortality Rating Tobacco Budworm 1st Instar ([4]; 300 ppm) | Mortality Rating Southern Armyworm ([1]; 10 ppm) | LC50 ([1]; Spodoptera eridania, read-out: LC50 Southern Armyworm) [µg/mL] | Mortality Rating Tobacco Budworm 1st Instar ([4]; 100 ppm) |
| --- | --- | --- | --- | --- | --- | --- | --- | --- | --- |
| N=C(NN=Cc1ccc(C(F)(F)F)cc1)N(N=Cc1ccc(C(F)(F)F)cc1)C(=O)NCCCl [CF3 / CF3 / ClCH2 CH2 / H, allophanimidic acid, 4-(2-chloroethyl)-2-{[p-(trifluoromethyl)benzylidene]amino}-allophanimidicacid [p-(trifluoromethyl)benzylidene]hydrazide] | 9 (100%) | 9 (100%) | 654 (≈ 1290 µM) | 4 (46-55%) | 9 (100%) | 0 (No effect) |  |  |  |
| CN(C)C(=O)N(N=Cc1ccc(OC(F)(F)C(F)F)cc1)C(=N)NN=Cc1ccc(OC(F)(F)C(F)F)cc1 [HCF2 CF2 O / HCF2 CF2 O / CH3 / CH3, 4,4-dimethyl-2-{[p-(1,1,2,2-tetrafluoroethoxy)benzylidene]amino}-allophanimidic acid [p-(1,1,2,2-tetrafluoroethoxy)benzylidene]hydrazide] | 9 (100%) | 9 (100%) | 491 (≈ 864 µM) | 2 (26-35%) | 8 (86-99%) | 9 (100%) | 0 (No effect) | 7 (≈ 12.3 µM) | 5 (56-65%) |
